Laboratory results from ChEMBL document CHEMBL5724914, “Linking interpersonal differences in gut microbiota composition and drug biotransformation activity” (2024).

Key:
[1] = (§1) The drug is tested on Z-024 corresponding to pig gut metagenome with ENA study accession number: PRJEB37062 and ENA sample accession number: ERS12561823 for biotransformation under anaerobic condition. The drug concentrations were measured over 9 timepoints collected between 0 and 24 hours of incubation by liquid-chromatography-coupled mass spectrometry (LC–MS); conditions: 2 µM
[2] = as §1, with “Z-019” for “Z-024”, “rat” for “pig”, “ERS12561818” for “ERS12561823”; conditions: 2 µM
[3] = as §1, with “Z-017” for “Z-024”, “mouse” for “pig”, “ERS12561816” for “ERS12561823”; conditions: 2 µM
[4] = as §1, with “Z-016” for “Z-024”, “mouse” for “pig”, “ERS12561815” for “ERS12561823”; conditions: 2 µM
[5] = as §1, with “Z-007” for “Z-024”, “rat” for “pig”, “ERS12561807” for “ERS12561823”; conditions: 2 µM
[6] = as §1, with “WLS-170” for “Z-024”, “human” for “pig”, “ERS12561762” for “ERS12561823”; conditions: 2 µM
[7] = as §1, with “WLS-073” for “Z-024”, “human” for “pig”, “ERS12561749” for “ERS12561823”; conditions: 2 µM
[8] = as §1, with “WLS-069” for “Z-024”, “human” for “pig”, “ERS12561748” for “ERS12561823”; conditions: 2 µM
[9] = as §1, with “WLS-052” for “Z-024”, “human” for “pig”, “ERS12561747” for “ERS12561823”; conditions: 2 µM
[10] = human gut metagenome, 24 h, 2 µM
[11] = human gut metagenome, 24 h, 2 µM; remark: listed apart in the source
[12] = human gut metagenome, 24 h, 2 µM; remark: listed apart in the source
[13] = human gut metagenome, 24 h, 2 µM; remark: listed apart in the source
[14] = human gut metagenome, 24 h, 2 µM; remark: listed apart in the source
[15] = human gut metagenome, 24 h, 2 µM; remark: listed apart in the source
[16] = human gut metagenome, 24 h, 2 µM; remark: listed apart in the source
[17] = human gut metagenome, 24 h, 2 µM; remark: listed apart in the source
[18] = human gut metagenome, 24 h, 2 µM; remark: listed apart in the source
[19] = human gut metagenome, 24 h, 2 µM; remark: listed apart in the source
[20] = human gut metagenome, 24 h, 2 µM; remark: listed apart in the source
Further: call rule not given here.

| SMILES | Bacterial Biotransformation [1] | Bacterial Biotransformation [2] | Bacterial Biotransformation [3] | Bacterial Biotransformation [4] | Bacterial Biotransformation [5] | Bacterial Biotransformation [6] | Bacterial Biotransformation [7] | Bacterial Biotransformation [8] | Bacterial Biotransformation [9] | Bacterial Biotransformation [10] | Bacterial Biotransformation [11] | Bacterial Biotransformation [12] | Bacterial Biotransformation [13] | Bacterial Biotransformation [14] | Bacterial Biotransformation [15] | Bacterial Biotransformation [16] | Bacterial Biotransformation [17] | Bacterial Biotransformation [18] | Bacterial Biotransformation [19] | Bacterial Biotransformation [20] |
| --- | --- | --- | --- | --- | --- | --- | --- | --- | --- | --- | --- | --- | --- | --- | --- | --- | --- | --- | --- | --- |
| CC(=O)O[C@]1(C(C)=O)CC[C@H]2[C@@H]3C=C(C)C4=CC(=O)CC[C@]4(C)[C@H]3CC[C@@]21C [MEGESTROL ACETATE] | Compound NOT metabolized | Compound NOT metabolized | Compound metabolized | Compound metabolized | Compound metabolized | Compound metabolized | Compound metabolized | Compound metabolized | Compound metabolized | Compound metabolized | Compound metabolized | Compound metabolized | Compound metabolized | Compound metabolized | Compound metabolized | Compound metabolized | Compound metabolized | Compound metabolized | Compound metabolized | Compound metabolized |
| CC12CC3CC(C)(C1)CC(N)(C3)C2 [MEMANTINE] | Compound NOT metabolized | Compound NOT metabolized | Compound NOT metabolized | Compound NOT metabolized | Compound NOT metabolized | Compound metabolized | Compound NOT metabolized | Compound NOT metabolized | Compound NOT metabolized | Compound NOT metabolized | Compound NOT metabolized | Compound NOT metabolized | Compound NOT metabolized | Compound NOT metabolized | Compound NOT metabolized | Compound NOT metabolized | Compound NOT metabolized | Compound NOT metabolized | Compound NOT metabolized | Compound NOT metabolized |
| Cc1cc(C)cc(OCC2CNC(=O)O2)c1 (stereo not given) [METAXALONE] | Compound NOT metabolized | Compound NOT metabolized | Compound metabolized | Compound NOT metabolized | Compound NOT metabolized | Compound metabolized | Compound NOT metabolized | Compound metabolized | Compound metabolized | Compound NOT metabolized | Compound metabolized | Compound NOT metabolized | Compound metabolized | Compound NOT metabolized | Compound metabolized | Compound metabolized | Compound NOT metabolized | Compound metabolized | Compound metabolized | Compound NOT metabolized |
| COC(=O)C(c1ccccc1)C1CCCCN1 (stereo not given) [METHYLPHENIDATE] | Compound metabolized | Compound NOT metabolized | Compound NOT metabolized | Compound NOT metabolized | Compound NOT metabolized | Compound metabolized | Compound NOT metabolized | Compound NOT metabolized | Compound NOT metabolized | Compound NOT metabolized | Compound NOT metabolized | Compound NOT metabolized | Compound NOT metabolized | Compound NOT metabolized | Compound metabolized | Compound NOT metabolized | Compound NOT metabolized | Compound NOT metabolized | Compound NOT metabolized | Compound NOT metabolized |
| CN1CCN2c3ccccc3Cc3ccccc3C2C1 (stereo not given) [MIANSERIN] | Compound metabolized | Compound NOT metabolized | Compound NOT metabolized | Compound NOT metabolized | Compound NOT metabolized | Compound metabolized | Compound NOT metabolized | Compound metabolized | Compound NOT metabolized | Compound metabolized | Compound NOT metabolized | Compound NOT metabolized | Compound NOT metabolized | Compound NOT metabolized | Compound metabolized | Compound NOT metabolized | Compound NOT metabolized | Compound NOT metabolized | Compound metabolized | Compound NOT metabolized |
| CC#C[C@]1(O)CC[C@H]2[C@@H]3CCC4=CC(=O)CCC4=C3[C@@H](c3ccc(N(C)C)cc3)C[C@@]21C [MIFEPRISTONE] | Compound metabolized | Compound NOT metabolized | Compound NOT metabolized | Compound metabolized | Compound NOT metabolized | Compound metabolized | Compound NOT metabolized | Compound metabolized | Compound metabolized | Compound NOT metabolized | Compound NOT metabolized | Compound NOT metabolized | Compound NOT metabolized | Compound metabolized | Compound metabolized | Compound NOT metabolized | Compound NOT metabolized | Compound NOT metabolized | Compound NOT metabolized | Compound NOT metabolized |
| CC(C)(C)NCC(O)COc1cccc2c1CC(O)C(O)C2 (stereo not given) [NADOLOL] | Compound NOT metabolized | Compound NOT metabolized | Compound NOT metabolized | Compound NOT metabolized | Compound NOT metabolized | Compound metabolized | Compound NOT metabolized | Compound metabolized | Compound NOT metabolized | Compound NOT metabolized | Compound NOT metabolized | Compound NOT metabolized | Compound NOT metabolized | Compound metabolized | Compound NOT metabolized | Compound NOT metabolized | Compound NOT metabolized | Compound NOT metabolized | Compound NOT metabolized | Compound NOT metabolized |
| CC(C)[C@H]1CC[C@H](C(=O)N[C@H](Cc2ccccc2)C(=O)O)CC1 [NATEGLINIDE] | Compound metabolized | Compound NOT metabolized | Compound NOT metabolized | Compound metabolized | Compound NOT metabolized | Compound metabolized | Compound metabolized | Compound metabolized | Compound metabolized | Compound metabolized | Compound metabolized | Compound metabolized | Compound metabolized | Compound metabolized | Compound metabolized | Compound metabolized | Compound metabolized | Compound metabolized | Compound metabolized | Compound NOT metabolized |
